Assay results published in patent US11202833B2, “Methylglyoxal-scavenging cyclic peptides and their use for the prevention and treatment of diseases associated with elevated methylglyoxal levels” (RUPRECHT-KARLS-UNIVERSITÄT HEIDELBERG, priority 2016, dated 2021).
Numbered stars: 1 amine (or outer) side, 2 acyl side, 3 side chain; on linkers, the order of the positions; unused ones are H or OH. Bridge positions count the residues as written; N and C are the ends. Side chains are listed from the residue outwards. Peptide text beside a SMILES is read from it. * marks the point of attachment. ξ: configuration not given here. DOTA = O=C(O)CN1CCN(CC(=O)O)CCN(CC(=O)*)CCN(CC(=O)O)CC1; C16 diacid = O=C(O)CCCCCCCCCCCCCCC(=O)*; ξγGlu = O=C(O)C(CCC(=O)[*:2])N[*:1]; Myristoyl = CCCCCCCCCCCCCC(=O)*

Legend:
[1] = parameters: species or system NMRI mice; conditions: mouse, in vivo
Experimental: DOTA coupled peptides were labeled with ^68Ga as described previously (Wischnjow et al., 2016). In short ^68Ga was eluted from the generator into a tube containing 20 nmol of the peptide and 0.5% ascorbic acid in 0.5 M Na-acetate buffer. The mixture was incubated at pH 3.5-4.0 for 10′ at 95° C. while stirring to allow for the ^68Ga-DOTA complex to form. Free ^68Ga was removed using C18 solid phase extraction cartridges (Thermo Scientific, USA) and the product was checked by HPLC (Agilent Technologies, USA) equipped with a radio flow detector. The labeled peptide was injected i.v. into NMRI mice. PET analysis was carried out for 0-1 h and for another 20′ after 2 h while cumulative pictures are shown for 0-20 min, 40-60 min and 120-140 min.
Data was normalized for animal weight and injected dose and pictures and data are given as standardized uptake value [SUV]. For quantitative comparison the area under the curve for the SUV values of the different regions was determined and compared by Student's t-test.

[2] = system: human serum albumin (HSA); test: Competitive inhibition of HSA MG-H1 formation; format: biochemical; conditions: for prevention of HSA-MG-H1 formation: FIG. 2B, HSA with MG and scavenger
Experimental: In short, pure MG-1,1-dimethylacetal was heated in sulphuric acid solution for 1 h and fractionally distilled in a column containing glass helices under reduced pressure. Fractions were analyzed by ^1H and ^13C NMR. […] Two parts urea (8M urea, 0.5 M TrisHCl; pH8.0) were added to the solution and the sample was vortexed. HSA was precipitated by addition of two parts acetonitrile (respective to the final sample/urea mixture) and collected by centrifugation for 10′ at 13000 g. […] The HSA containing pellet was dissolved in 20 mM HCl and the protein content was determined by BCA assay. […] The amount of HSA-MG-H1 adduct was determined by LC-MS. Samples and standard curve were spiked with d3-MG-H1 (Polypeptide Group, San Diego, Calif., USA) and derivatized with Fmoc-Cl. Separation was performed on a C18 column (Hypersil Gold aQ; Thermo Scientific, USA) using a 20 min gradient of 0-100% acetonitrile (0.1% TFA) with the first five minutes diverted to waste. Analysis was carried out on an Exactive Orbitrap MS system (Thermo Scientific, USA). […] The calibration range used for the assay was 0-30 pmol.

[3] = MG scavenging in vitro (MG half-life by HPLC)
Experimental: (§1) Scavengers (400 μM) were incubated with MG (200 μM) in 0.1 M phosphate buffer, pH 7.4 at 37° C. The kinetics of the scavenging reaction was followed for 48 h. Samples were frozen in liquid nitrogen and stored at −80° C. until analysis. MG content was quantified by HPLC as described below.
(§2) In short samples were precipitated with 20% TCA at a ratio of 2/1 and vortex mixed. Internal standards ^13C MG (LC-MS/MS analysis) or 2,3-dimethylquinoxaline (HPLC analysis) and water was added and the sample mixed again. Samples were centrifuged at 13,000 g at 4° C. for 5 min and the supernatant derivatized with 1,2-diaminobenzene in the presence of sodium azide for 4 h at RT. For HPLC based MG analysis the linear gradient was 0-6% acetonitrile in 15 min. The MG-1,2-diaminobenzene adduct 2-methylquinoxaline and the internal standard 2,3-dimethylquinoxaline were detected with a UV monitor at 320 nm and eluted at 12.7 min and 14.2 min, respectively. For LC-MS/MS, samples were analyzed using an ACQUITY UPLC I equipped with a Xevo TQ-S mass spectrometer (Waters, USA). Samples were separated on BEH C18 analytical column (2.1×50 mm, 1.7 μm) fitted with pre-column (2.1×5 mm, 1.7 μm). Solvent A was water+0.1% formic and solvent B was 50% acetonitrile+0.1% formic acid and a linear gradient from 0-100% solvent B, over ten minutes was used with a flow rate of 0.2 ml/min. Injection volume was 1 μl and the column temperature was 20° C. The quinoxaline analytes were detected by electrospray positive ionization-mass spectrometric multiple-reaction monitoring (MRM). The source temperature was 150° C. and the desolvation gas temperature was 350° C. The cone gas and desolvation gas flow rates were 150 and 800 l/hr, respectively. The capillary voltage was 0.5 kV and the cone voltage was 20V. Mass transitions (parent ion >fragment ion; collision energy) and retention time were as follows: MG 145.01>77.10; 24 eV, 5.93 mins; [^13C3]-MG 148.07>77.16; 24 eV, 5.92 mins. The standard curve was in the range of 0-20 pmol and 0-1 nmol for LC MS/MS analysis and HPLC analysis, respectively.

[4] = Serum stability of 177Lu-labelled peptides; format: in vitro ADME; conditions: human serum, 37° C., after 24 h, 177Lu label
Experimental: The cyclic peptide CycK(DOTA)K(Myr)R4E and the linear peptide K(DOTA)K(Myr)R4E were labeled with ^177Lu. In short 20 nmol of peptides were incubated with ^177Lu in 0.4 M Na-acetate buffer (pH 5.0) for 10′ at 95° C. Free ^177Lu was removed by C18 solid phase extraction cartridges, the products eluted with EtOH and checked by radio-HPLC. The radiolabelled peptides were reconstituted in human serum (H4522; Sigma-Aldrich) and incubated in serum at 37° C. for the times indicated. Serum was precipitated by addition of two parts acetonitrile centrifuged for 10 min at 13000 g and the supernatant analysed by HPLC (Agilent Technologies, USA) fitted with a radio flow detector using a 10 min gradient of 0-60% acetonitrile in water (0.1% TFA).

washed human whole blood [5] = test: Hemolysis; conditions: 37° C., 30 min
Experimental: (§3) Human whole blood was collected into EDTA tubes and centrifuged at 500 g at RT for 5 min. The plasma and buffy coat was removed and saline solution was added to the haematocrit containing pellet to the previous plasma level to wash the erythrocytes. The tube was gently inverted several times and centrifuged again at 500 g. This procedure was repeated until the supernatant remained clear (approx. 4 times). After the last centrifugation step the hematocrit was re-suspended in PBS to reach the original blood volume. […] Haemolysis was compared to saline solution (negative control; 0% haemolysis) and 1% Triton X100 solution (positive control; 100% haemolysis).

in vivo = conditions: C57/B16, mouse, ip
Experimental: Blood was collected by cardiac puncture in an aesthetised mice at time points 10′, 30′, 1 h, 4 h, 8 h and 24 h into tubes containing EDTA. Plasma was collected after centrifugation at 3000 g for 5′ at room temperature and frozen in liquid nitrogen.
Plasma was acidified with 5% TFA (5 μl/30 μl), acetonitrile (60 μl) was added and the tubes vortexed. Another 120 μl of acetonitrile were added and samples were ultrasonicated for 5 min. Samples were spun for 20 min at 13000 g. The supernatant (180 μl) was collected, mixed with 180 μl of water and freeze dried. The sample was resuspended in 30 μl of a mixture of acetonitrile/water (ratio of 1/1) containing 0.1% TFA. The samples was analysed by LC MS. Concentration was calculated by normalisation for the internal standard in combination with linear regression of a standard curve. Concentration/time-points were fitted using a one phase exponential decay model to determine the half-life of the drug.

[6] = 400 µM, pH 7.4
Experimental: as §1, §2

[7] = system: murine cardiac endothelial cells; format: cell-based; conditions: mouse, 48 h, 1 mM
Experimental: Murine cardiac endothelial cells were seeded on gelatine pre-coated 96 well plates at a density of 5000 cells per well in DMEM (1 g/1 glucose, 5% FCS, 1% Pen/Strep, 1% AmpB, 1% HEPES). On the following day cells were switched to medium containing only 0.1% FCS. […] MTT ((3-(4,5-Dimethylthiazol-2-yl)-2,5-Diphenyltetrazolium Bromide)) solution (50 μl of 2 mg/ml in PBS) was added to the wells and the plate was incubated at 37° C. for 3-4 h. Medium was removed and 200 μl of DMSO was added to lyse cells and solubilise the purple formazan crystals. The plate was incubated for 1 h at room temperature on a shaker and absorbance was measured at 590 nm. Intensity for untreated cells was set to 100%.

washed human whole blood [8] = system: washed human whole blood
Experimental: as §3

[9] = Kinsky et al., 2016; cited from earlier work

In the case of `N=C(N)NCCC[C@@H]1NC(=O)[C@H](CCCNC(=N)N)NC(=O)[C@H](CCCNC(=N)N)NC(=O)[C@H](CCCNC(=N)N)NC(=O)[C@H](CCCCNC(=O)CN2CCN(CC(=O)O)CCN(CC(=O)O)CCN(CC(=O)O)CC2)NC(=O)CC[C@@H](C(=O)O)NC1=O` (68Ga complex, metal not drawn) [CycK(DOTA)R4E] (K(DOTA)RRRRE-OH; lactam N-6), the completely excreted after [1] was no more than 140 min and the “excreted almost completely within/after” value ([1]; iv) was no more than 20 min.

For `N=C(N)NN` [Agd, aminoguanidine], the “prevention of HSA-MG-H1 formation” value [2] was “tended to be more efficient”.

With `NCCC(=O)N[C@@H](Cc1cnc[nH]1)C(=O)O` [Car, carnosine] the “prevention of HSA-MG-H1 formation” value [2] was “nor did it prevent” and the “MG scavenging (in words)” value [3] was “neither scavenged MG”.

In the case of `CN(CC(=O)O)C(=N)N` [Cre, creatine], the “MG scavenging (in words)” value [3] was “fastest of the endogenous MG scavengers tested”.

In the case of `CCCCCCCCCCCCCC(=O)NCCCC[C@@H]1NC(=O)[C@H](CCCCNC(=O)CN2CCN(CC(=O)O)CCN(CC(=O)O)CCN(CC(=O)O)CC2)NC(=O)CC[C@@H](C(=O)O)NC(=O)[C@H](CCCNC(=N)N)NC(=O)[C@H](CCCNC(=N)N)NC(=O)[C@H](CCCNC(=N)N)NC(=O)[C@H](CCCNC(=N)N)NC1=O` [CycK(DOTA)K(Myr)R4E] (K(DOTA)K(Myristoyl)RRRRE-OH; lactam N-7), the “SUV in the bladder” value [1] was “lower”, the “SUV in the kidney” value [1] was “similar” and the “SUV values in the heart, muscle and liver” value [1] was “higher”. For the same compound, the “accumulation in the kidneys” value [1] was “strong accumulation in the kidneys”, the “circulates for” value [1] was “over 140 min” and the peptide remaining [4] was 86.16%.

With `CCCCCCCCCCCCCC(=O)NCCCC[C@@H]1NC(=O)CC[C@@H](C(=O)O)NC(=O)[C@H](CCCNC(=N)N)NC(=O)[C@H](CCCNC(=N)N)NC(=O)[C@H](CCCNC(=N)N)NC(=O)[C@H](CCCNC(=N)N)NC1=O` [CycK(Myr)R4E] (K(Myristoyl)RRRRE-OH; lactam N-6) the “concentration above which significant hemolysis is displayed” value (washed human whole blood [5]) was “over 50 μM”.

In the case of `N=C(N)NCCC[C@@H]1NC(=O)[C@H](CCCNC(=N)N)NC(=O)[C@H](CCCNC(=N)N)NC(=O)[C@H](CCCNC(=N)N)NC(=O)[C@H](CCCCNC(=O)CCC(NC(=O)CCCCCCCCCCCCCCC(=O)O)C(=O)O)NC(=O)CC[C@@H](C(=O)O)NC1=O` (stereo partly shown) [CycK(e-Hdd)R4E] (K([ξγGlu-C16 diacid])RRRRE-OH; lactam N-6), the “prevention of modification of HSA with MG-H1” value ([2]; FIG. 9, peptides 400 μM, HSA 400 μM, MG 200 μM) was “significantly prevented”, the half-life (in vivo) was roughly 8 h and the “MG t1/2” value [6] was 1.1 h. The “viability relative to untreated cells” value [7] was 75% and the “hemolysis (in words)” value (washed human whole blood [8]) was “does not cause hemolysis even at high concentrations”.

Work on `CCCCCCCCCCCCCC(=O)NCCCC[C@H](NC(=O)[C@@H](N)CCCCNC(=O)CN1CCN(CC(=O)O)CCN(CC(=O)O)CCN(CC(=O)O)CC1)C(=O)N[C@@H](CCCNC(=N)N)C(=O)N[C@@H](CCCNC(=N)N)C(=O)N[C@@H](CCCNC(=N)N)C(=O)N[C@@H](CCCNC(=N)N)C(=O)N[C@@H](CCC(=O)O)C(=O)O` [K(DOTA)K(Myr)R4E] (H-K(DOTA)K(Myristoyl)RRRRE-OH; N-terminus assumed) yielded a peptide remaining [4] of 33.4%.

In the case of `CN(C)C(=N)N=C(N)N` [Met, metformin], the “prevention of HSA-MG-H1 formation” value [2] is given as “did not significantly prevent” and the “MG-metformin adduct concentration in the urine” value [9] is given as “up to 4 μM”.

In the case of `Cc1ncc(CO)c(CN)c1O` [Pyr, pyridoxamine], the “prevention of HSA-MG-H1 formation” value [2] was “did not significantly prevent”.
